The values below come from article PMC10885153, “Membrane Permeability in a Large Macrocyclic Peptide Driven by a Saddle-Shaped Conformation” (Journal of the American Chemical Society, 2024).

Positions of bridges follow the written chain, without caps; N, C: chain ends. Non-standard residues stand in square brackets, D forms with d. Residues, ends and D or L forms follow the SMILES beside them. NMeC = CN[C@@H](CS)C(=O)O; NMeA = CN[C@@H](C)C(=O)O; dAbu = CC[C@@H](N)C(=O)O; dNMeA = CN[C@H](C)C(=O)O; Abu = CC[C@H](N)C(=O)O; Nleu = CC(C)CNCC(=O)O; NEtG = CCNCC(=O)O

In general, Papp refers to the rate of passage across a membrane or cell layer, normalised by area and donor concentration. Low readings indicate slow passage, high ones fast passage.

The data set is described as follows: in vitro. The settings on record: PAMPA, pH 7.4, PAMPA Pe_avg. (In PAMPA a lipid-coated filter parts donor from acceptor wells.)
The compound `CCOC(=O)[C@@H]1CSCC(=O)N[C@@H](CC)C(=O)N(C)[C@@H](C)C(=O)N[C@@H](CC(C)C)C(=O)N2CCC[C@@H]2C(=O)N(CC)CC(=O)N[C@@H](CC(C)C)C(=O)N(C)[C@H](C)C(=O)N[C@@H](CC(C)C)C(=O)N1C` [JF206_ADL_LLLD_Ethyl] ({CH2CO}-[Abu][NMeA]L[dP][NEtG]L[dNMeA]L[NMeC]-OEt; thioether N-9) showed an apparent permeability coefficient (Papp) at 10 µM of 0.326 ×10⁻⁶ cm/s.

Compound `CCOC(=O)[C@@H]1CSCC(=O)N[C@H](CC)C(=O)N(C)[C@@H](C)C(=O)N[C@H](CC(C)C)C(=O)N2CCC[C@H]2C(=O)N(CC)CC(=O)N[C@H](CC(C)C)C(=O)N(C)[C@H](C)C(=O)N[C@@H](CC(C)C)C(=O)N1C` [JF206_ALD_DDDD_Ethyl] ({CH2CO}-[dAbu][NMeA][dL]P[NEtG][dL][dNMeA]L[NMeC]-OEt; thioether N-9) came in with a Papp at 10 µM of 0.194 ×10⁻⁶ cm/s.

Consider `CCOC(=O)[C@@H]1CSCC(=O)N[C@H](CC)C(=O)N(C)[C@@H](C)C(=O)N[C@H](CC(C)C)C(=O)N2CCC[C@H]2C(=O)N(CC)CC(=O)N[C@H](CC(C)C)C(=O)N(C)[C@@H](C)C(=O)N[C@@H](CC(C)C)C(=O)N1C` [JF206_ALD_DDDL_Ethyl] ({CH2CO}-[dAbu][NMeA][dL]P[NEtG][dL][NMeA]L[NMeC]-OEt; thioether N-9), for which the Papp at 10 µM came out at 0.18 ×10⁻⁶ cm/s.

`CCOC(=O)[C@@H]1CSCC(=O)N[C@H](CC)C(=O)N(C)[C@@H](C)C(=O)N[C@H](CC(C)C)C(=O)N2CCC[C@H]2C(=O)N(CC(C)C)CC(=O)N[C@H](CC(C)C)C(=O)N(C)[C@@H](C)C(=O)N[C@@H](CC(C)C)C(=O)N1C` [JF206_ALD_DDDL_Isobutyl] ({CH2CO}-[dAbu][NMeA][dL]P[Nleu][dL][NMeA]L[NMeC]-OEt; thioether N-9): the Papp at 10 µM worked out at 0.556 ×10⁻⁶ cm/s.

Turning to `CCOC(=O)[C@@H]1CSCC(=O)N[C@H](CC)C(=O)N(C)[C@@H](C)C(=O)N[C@H](CC(C)C)C(=O)N2CCC[C@H]2C(=O)N(CC)CC(=O)N[C@@H](CC(C)C)C(=O)N(C)[C@H](C)C(=O)N[C@@H](CC(C)C)C(=O)N1C` [JF206_ALD_DDLD_Ethyl] ({CH2CO}-[dAbu][NMeA][dL]P[NEtG]L[dNMeA]L[NMeC]-OEt; thioether N-9), the apparent permeability (Papp) at 10 µM was 0.007 ×10⁻⁶ cm/s.

In turn, `CCOC(=O)[C@@H]1CSCC(=O)N[C@H](CC)C(=O)N(C)[C@@H](C)C(=O)N[C@H](CC(C)C)C(=O)N2CCC[C@H]2C(=O)N(CC(C)C)CC(=O)N[C@@H](CC(C)C)C(=O)N(C)[C@H](C)C(=O)N[C@@H](CC(C)C)C(=O)N1C` [JF206_ALD_DDLD_Isobutyl] ({CH2CO}-[dAbu][NMeA][dL]P[Nleu]L[dNMeA]L[NMeC]-OEt; thioether N-9) came in with an apparent permeability (Papp) at 10 µM of 0.063 ×10⁻⁶ cm/s.

`CCOC(=O)[C@@H]1CSCC(=O)N[C@H](CC)C(=O)N(C)[C@@H](C)C(=O)N[C@H](CC(C)C)C(=O)N2CCC[C@H]2C(=O)N(CC)CC(=O)N[C@@H](CC(C)C)C(=O)N(C)[C@@H](C)C(=O)N[C@@H](CC(C)C)C(=O)N1C` [JF206_ALD_DDLL_Ethyl] ({CH2CO}-[dAbu][NMeA][dL]P[NEtG]L[NMeA]L[NMeC]-OEt; thioether N-9) returned a Papp at 10 µM of 0.00548 ×10⁻⁶ cm/s.

Turning to `CCOC(=O)[C@@H]1CSCC(=O)N[C@H](CC)C(=O)N(C)[C@@H](C)C(=O)N[C@H](CC(C)C)C(=O)N2CCC[C@H]2C(=O)N(CC(C)C)CC(=O)N[C@@H](CC(C)C)C(=O)N(C)[C@@H](C)C(=O)N[C@@H](CC(C)C)C(=O)N1C` [JF206_ALD_DDLL_Isobutyl] ({CH2CO}-[dAbu][NMeA][dL]P[Nleu]L[NMeA]L[NMeC]-OEt; thioether N-9), the Papp at 10 µM worked out at 0.075 ×10⁻⁶ cm/s.

Take `CCOC(=O)[C@@H]1CSCC(=O)N[C@H](CC)C(=O)N(C)[C@@H](C)C(=O)N[C@@H](CC(C)C)C(=O)N2CCC[C@H]2C(=O)N(CC(C)C)CC(=O)N[C@H](CC(C)C)C(=O)N(C)[C@H](C)C(=O)N[C@@H](CC(C)C)C(=O)N1C` [JF206_ALD_DLDD_Isobutyl] ({CH2CO}-[dAbu][NMeA]LP[Nleu][dL][dNMeA]L[NMeC]-OEt; thioether N-9): the Papp at 10 µM amounted to 0.038 ×10⁻⁶ cm/s.

In turn, `CCOC(=O)[C@@H]1CSCC(=O)N[C@H](CC)C(=O)N(C)[C@@H](C)C(=O)N[C@@H](CC(C)C)C(=O)N2CCC[C@H]2C(=O)N(CC)CC(=O)N[C@H](CC(C)C)C(=O)N(C)[C@@H](C)C(=O)N[C@@H](CC(C)C)C(=O)N1C` [JF206_ALD_DLDL_Ethyl] ({CH2CO}-[dAbu][NMeA]LP[NEtG][dL][NMeA]L[NMeC]-OEt; thioether N-9) registered a Papp at 10 µM of 0.027 ×10⁻⁶ cm/s.

For `CCOC(=O)[C@@H]1CSCC(=O)N[C@H](CC)C(=O)N(C)[C@@H](C)C(=O)N[C@@H](CC(C)C)C(=O)N2CCC[C@H]2C(=O)N(CC(C)C)CC(=O)N[C@H](CC(C)C)C(=O)N(C)[C@@H](C)C(=O)N[C@@H](CC(C)C)C(=O)N1C` [JF206_ALD_DLDL_Isobutyl] ({CH2CO}-[dAbu][NMeA]LP[Nleu][dL][NMeA]L[NMeC]-OEt; thioether N-9), the Papp at 10 µM turned out to be 0.248 ×10⁻⁶ cm/s.

Take `CCOC(=O)[C@@H]1CSCC(=O)N[C@H](CC)C(=O)N(C)[C@@H](C)C(=O)N[C@@H](CC(C)C)C(=O)N2CCC[C@H]2C(=O)N(CC)CC(=O)N[C@@H](CC(C)C)C(=O)N(C)[C@H](C)C(=O)N[C@@H](CC(C)C)C(=O)N1C` [JF206_ALD_DLLD_Ethyl] ({CH2CO}-[dAbu][NMeA]LP[NEtG]L[dNMeA]L[NMeC]-OEt; thioether N-9): the Papp at 10 µM amounted to 0.016 ×10⁻⁶ cm/s.

Consider `CCOC(=O)[C@@H]1CSCC(=O)N[C@H](CC)C(=O)N(C)[C@@H](C)C(=O)N[C@@H](CC(C)C)C(=O)N2CCC[C@H]2C(=O)N(CC(C)C)CC(=O)N[C@@H](CC(C)C)C(=O)N(C)[C@H](C)C(=O)N[C@@H](CC(C)C)C(=O)N1C` [JF206_ALD_DLLD_Isobutyl] ({CH2CO}-[dAbu][NMeA]LP[Nleu]L[dNMeA]L[NMeC]-OEt; thioether N-9), for which the Papp at 10 µM worked out at 0.117 ×10⁻⁶ cm/s.

In the case of `CCOC(=O)[C@@H]1CSCC(=O)N[C@H](CC)C(=O)N(C)[C@@H](C)C(=O)N[C@@H](CC(C)C)C(=O)N2CCC[C@H]2C(=O)N(CC(C)C)CC(=O)N[C@@H](CC(C)C)C(=O)N(C)[C@@H](C)C(=O)N[C@@H](CC(C)C)C(=O)N1C` [JF206_ALD_DLLL_Isobutyl] ({CH2CO}-[dAbu][NMeA]LP[Nleu]L[NMeA]L[NMeC]-OEt; thioether N-9), the Papp at 10 µM is 0.598 ×10⁻⁶ cm/s.

Take `CCOC(=O)[C@@H]1CSCC(=O)N[C@@H](CC)C(=O)N(C)[C@@H](C)C(=O)N[C@H](CC(C)C)C(=O)N2CCC[C@H]2C(=O)N(CC)CC(=O)N[C@H](CC(C)C)C(=O)N(C)[C@H](C)C(=O)N[C@@H](CC(C)C)C(=O)N1C` [JF206_ALL_LDDD_Ethyl] ({CH2CO}-[Abu][NMeA][dL]P[NEtG][dL][dNMeA]L[NMeC]-OEt; thioether N-9): the Papp at 10 µM amounted to 0.623 ×10⁻⁶ cm/s.

`CCOC(=O)[C@@H]1CSCC(=O)N[C@@H](CC)C(=O)N(C)[C@@H](C)C(=O)N[C@H](CC(C)C)C(=O)N2CCC[C@H]2C(=O)N(CC)CC(=O)N[C@@H](CC(C)C)C(=O)N(C)[C@H](C)C(=O)N[C@@H](CC(C)C)C(=O)N1C` [JF206_ALL_LDLD_Ethyl] ({CH2CO}-[Abu][NMeA][dL]P[NEtG]L[dNMeA]L[NMeC]-OEt; thioether N-9) had a Papp at 10 µM of 0.012 ×10⁻⁶ cm/s.

Regarding `CCOC(=O)[C@@H]1CSCC(=O)N[C@@H](CC)C(=O)N(C)[C@@H](C)C(=O)N[C@H](CC(C)C)C(=O)N2CCC[C@H]2C(=O)N(CC)CC(=O)N[C@@H](CC(C)C)C(=O)N(C)[C@@H](C)C(=O)N[C@@H](CC(C)C)C(=O)N1C` [JF206_ALL_LDLL_Ethyl] ({CH2CO}-[Abu][NMeA][dL]P[NEtG]L[NMeA]L[NMeC]-OEt; thioether N-9), the Papp at 10 µM is 0.015 ×10⁻⁶ cm/s.

`CCOC(=O)[C@@H]1CSCC(=O)N[C@@H](CC)C(=O)N(C)[C@@H](C)C(=O)N[C@@H](CC(C)C)C(=O)N2CCC[C@H]2C(=O)N(CC)CC(=O)N[C@H](CC(C)C)C(=O)N(C)[C@H](C)C(=O)N[C@@H](CC(C)C)C(=O)N1C` [JF206_ALL_LLDD_Ethyl] ({CH2CO}-[Abu][NMeA]LP[NEtG][dL][dNMeA]L[NMeC]-OEt; thioether N-9) yielded a Papp at 10 µM of 0.00468 ×10⁻⁶ cm/s.

In turn, `CCOC(=O)[C@@H]1CSCC(=O)N[C@@H](CC)C(=O)N(C)[C@@H](C)C(=O)N[C@@H](CC(C)C)C(=O)N2CCC[C@H]2C(=O)N(CC(C)C)CC(=O)N[C@H](CC(C)C)C(=O)N(C)[C@H](C)C(=O)N[C@@H](CC(C)C)C(=O)N1C` [JF206_ALL_LLDD_Isobutyl] ({CH2CO}-[Abu][NMeA]LP[Nleu][dL][dNMeA]L[NMeC]-OEt; thioether N-9) had a Papp at 10 µM of 0.182 ×10⁻⁶ cm/s.

`CCOC(=O)[C@@H]1CSCC(=O)N[C@@H](CC)C(=O)N(C)[C@@H](C)C(=O)N[C@@H](CC(C)C)C(=O)N2CCC[C@H]2C(=O)N(CC)CC(=O)N[C@H](CC(C)C)C(=O)N(C)[C@@H](C)C(=O)N[C@@H](CC(C)C)C(=O)N1C` [JF206_ALL_LLDL_Ethyl] ({CH2CO}-[Abu][NMeA]LP[NEtG][dL][NMeA]L[NMeC]-OEt; thioether N-9) gave a Papp at 10 µM of 0.003 ×10⁻⁶ cm/s.

In turn, `CCOC(=O)[C@@H]1CSCC(=O)N[C@@H](CC)C(=O)N(C)[C@@H](C)C(=O)N[C@@H](CC(C)C)C(=O)N2CCC[C@H]2C(=O)N(CC(C)C)CC(=O)N[C@H](CC(C)C)C(=O)N(C)[C@@H](C)C(=O)N[C@@H](CC(C)C)C(=O)N1C` [JF206_ALL_LLDL_Isobutyl] ({CH2CO}-[Abu][NMeA]LP[Nleu][dL][NMeA]L[NMeC]-OEt; thioether N-9) gave a Papp at 10 µM of 0.093 ×10⁻⁶ cm/s.

Consider `CCOC(=O)[C@@H]1CSCC(=O)N[C@@H](CC)C(=O)N(C)[C@@H](C)C(=O)N[C@@H](CC(C)C)C(=O)N2CCC[C@H]2C(=O)N(CC)CC(=O)N[C@@H](CC(C)C)C(=O)N(C)[C@H](C)C(=O)N[C@@H](CC(C)C)C(=O)N1C` [JF206_ALL_LLLD_Ethyl] ({CH2CO}-[Abu][NMeA]LP[NEtG]L[dNMeA]L[NMeC]-OEt; thioether N-9), for which the Papp at 10 µM is 0.014 ×10⁻⁶ cm/s.

For `CCOC(=O)[C@@H]1CSCC(=O)N[C@@H](CC)C(=O)N(C)[C@@H](C)C(=O)N[C@@H](CC(C)C)C(=O)N2CCC[C@H]2C(=O)N(CC(C)C)CC(=O)N[C@@H](CC(C)C)C(=O)N(C)[C@H](C)C(=O)N[C@@H](CC(C)C)C(=O)N1C` [JF206_ALL_LLLD_Isobutyl] ({CH2CO}-[Abu][NMeA]LP[Nleu]L[dNMeA]L[NMeC]-OEt; thioether N-9), the Papp at 10 µM amounted to 0.139 ×10⁻⁶ cm/s.

As to `CCOC(=O)[C@@H]1CSCC(=O)N[C@@H](CC)C(=O)N(C)[C@@H](C)C(=O)N[C@@H](CC(C)C)C(=O)N2CCC[C@H]2C(=O)N(CC)CC(=O)N[C@@H](CC(C)C)C(=O)N(C)[C@@H](C)C(=O)N[C@@H](CC(C)C)C(=O)N1C` [JF206_ALL_LLLL_Ethyl] ({CH2CO}-[Abu][NMeA]LP[NEtG]L[NMeA]L[NMeC]-OEt; thioether N-9), the Papp at 10 µM stood at 0.678 ×10⁻⁶ cm/s.
